Measured values as given in patent US9651864B2, “Negative resist composition, method for producing relief pattern using the same, and electronic component using the same” (DAI NIPPON PRINTING CO., LTD., priority 2010, dated 2017).
Each block holds one compound with its values, some of them ahead of it.

Key:
Assay type in all cases: physicochemical
[1] = Glass transition temperature (Tg) by differential thermal analyzer DSC-60; details: second heating to 200° C. at 10° C./min; deemed 200° C. or more when no inflection point until 200° C.
Protocol: Glass transition temperature (Tg): an intersection point of two tangents to smooth curving lines before and after the inflection temperature point of a DTA curve, the DTA curve being obtained when a material for forming a pattern of about 4 mg was heated to 200° C. at a rate of 10° C./min, cooled to room temperature and then heated to 200° C. at a rate of 10° C./min again, with a differential thermal analyzer (DSC-60 manufactured by Shimadzu Corporation).
Tg was deemed as 200° C. or more when no inflection point was found on the DTA curve until 200° C., which point corresponds to glass transition temperature.

[2] = Evaluation of solvent solubility of phenolic compound in typical resist solvents; design: key to Solubility in (D)-2: ⊚: The material for forming a pattern was dissolved at a concentration of 5 wt % at 23° C.; ◯: The material for forming a pattern was dissolved at a concentration of 1 wt % at 23° C.; X: The material for forming a pattern was insoluble; details: for Solubility in (D)-1: (D)-1: Propylene glycol monomethylether; for Solubility in (D)-1 / Solubility in (D)-2: 1 or 5 wt % at 23° C.; for Solubility in (D)-2: (D)-2: Propylene glycol monomethyl ether acetate
Protocol: The phenolic compounds (A-01 to A-15) obtained in Synthesis Examples 1 to 15 and the comparative phenolic compounds (CA-01 and CA-02) were added to the following typical resist solvents so as to have a concentration of 1 or 5 wt % at 23° C., followed by stirring:
(D)-1: Propylene glycol monomethylether
(D)-2: Propylene glycol monomethyl ether acetate
The thus-obtained mixtures were evaluated based on the following evaluation criterion.
? : The material for forming a pattern was dissolved at a concentration of 5 wt % at 23° C.,
∘: The material for forming a pattern was dissolved at a concentration of 1 wt % at 23° C.
x: The material for forming a pattern was insoluble.

[3] = as above; details: (D)-3: Cyclopentanone; 1 or 5 wt % at 23° C.

Glass Transition Temperature [1]: 200 °C or
Structure (SMILES): Cc1cc(C2(c3cc(C)c(O)c(CO)c3)CCC(C(C)(C)C3CCC(c4cc(C)c(O)c(CO)c4)(c4cc(C)c(O)c(CO)c4)CC3)CC2)cc(CO)c1O [Compound A-13]
Solubility in (D)-1 [2]: ⊚ (The material for forming a pattern was dissolved at a concentration of 5 wt % at 23° C.)
Solubility in (D)-2 [2]: ⊚ (The material for forming a pattern was dissolved at a concentration of 5 wt % at 23° C.)
Solubility in (D)-3 [3]: ⊚ (The material for forming a pattern was dissolved at a concentration of 5 wt % at 23° C.)

Glass Transition Temperature [1]: 200 °C or
Structure (SMILES): OCc1cc(C(c2cc(CO)c(O)c(C3CCCCC3)c2)C(c2cc(CO)c(O)c(C3CCCCC3)c2)c2cc(CO)c(O)c(C3CCCCC3)c2)cc(C2CCCCC2)c1O [Compound A-09]
Solubility in (D)-1 [2]: ⊚ (The material for forming a pattern was dissolved at a concentration of 5 wt % at 23° C.)
Solubility in (D)-2 [2]: ⊚ (The material for forming a pattern was dissolved at a concentration of 5 wt % at 23° C.)
Solubility in (D)-3 [3]: ⊚ (The material for forming a pattern was dissolved at a concentration of 5 wt % at 23° C.)

Glass Transition Temperature [1]: 200 °C or
Structure (SMILES): COCc1cc(C(c2cc(C)c(O)c(COC)c2)C(c2cc(C)c(O)c(COC)c2)c2cc(C)c(O)c(COC)c2)cc(C)c1O [Compound A-12]
Solubility in (D)-1 [2]: ⊚ (The material for forming a pattern was dissolved at a concentration of 5 wt % at 23° C.)
Solubility in (D)-2 [2]: ⊚ (The material for forming a pattern was dissolved at a concentration of 5 wt % at 23° C.)
Solubility in (D)-3 [3]: ⊚ (The material for forming a pattern was dissolved at a concentration of 5 wt % at 23° C.)

The remaining lines, values behind:

Structure (SMILES): OCc1cc(C2(c3cc(CO)c(O)c(CO)c3)c3ccccc3-c3ccccc32)cc(CO)c1O [Compound A-04]
Glass Transition Temperature [1]: 62 °C
Solubility in (D)-1 [2]: ⊚ (The material for forming a pattern was dissolved at a concentration of 5 wt % at 23° C.)
Solubility in (D)-2 [2]: ⊚ (The material for forming a pattern was dissolved at a concentration of 5 wt % at 23° C.)
Solubility in (D)-3 [3]: ⊚ (The material for forming a pattern was dissolved at a concentration of 5 wt % at 23° C.)

Structure (SMILES): CC(C)(c1cc(CO)c(O)c(CO)c1)c1cc(CO)c(O)c(CO)c1 [CA-01, 2,2-bis(4-hydroxy-3,5-dihydroxymethylphenyl)propane, reference compound]
Glass Transition Temperature [1]: 27 °C
Solubility in (D)-1 [2]: ◯ (The material for forming a pattern was dissolved at a concentration of 1 wt % at 23° C.)
Solubility in (D)-2 [2]: X
solubility in resist solvents (in words) ([2]; summary of Table 3): dissolve in only specific solvents
Solubility in (D)-3 [3]: ◯ (The material for forming a pattern was dissolved at a concentration of 1 wt % at 23° C.)

Structure (SMILES): Cc1cc(C(c2cc(C)c(O)c(CO)c2)C(c2cc(C)c(O)c(CO)c2)c2cc(C)c(O)c(CO)c2)cc(CO)c1O [Compound A-02]
Glass Transition Temperature [1]: 200 °C or
Solubility in (D)-1 [2]: ⊚ (The material for forming a pattern was dissolved at a concentration of 5 wt % at 23° C.)
Solubility in (D)-2 [2]: ◯ (The material for forming a pattern was dissolved at a concentration of 1 wt % at 23° C.)
solubility in propylene glycol monomethyl ether [2]: 5%
Solubility in (D)-3 [3]: ⊚ (The material for forming a pattern was dissolved at a concentration of 5 wt % at 23° C.)

Structure (SMILES): c1cc(C(c2ccc(OCC3CO3)cc2)C(c2ccc(OCC3CO3)cc2)c2ccc(OCC3CO3)cc2)ccc1OCC1CO1 (stereo not drawn) [TEP-G, reference compound]
Glass Transition Temperature [1]: 47 °C

Structure (SMILES): CC(C)(C1CCC(c2cc(CO)c(O)c(CO)c2)(c2cc(CO)c(O)c(CO)c2)CC1)C1CCC(c2cc(CO)c(O)c(CO)c2)(c2cc(CO)c(O)c(CO)c2)CC1 [Compound A-01]
Glass Transition Temperature [1]: 63 °C
Solubility in (D)-1 [2]: ◯ (The material for forming a pattern was dissolved at a concentration of 1 wt % at 23° C.)
Solubility in (D)-2 [2]: ◯ (The material for forming a pattern was dissolved at a concentration of 1 wt % at 23° C.)
solubility in propylene glycol monomethyl ether [2]: 2%
Solubility in (D)-3 [3]: ⊚ (The material for forming a pattern was dissolved at a concentration of 5 wt % at 23° C.)

Structure (SMILES): CC(C)(c1cccc(C(C)(C)c2cc(CO)c(O)c(CO)c2)c1)c1cc(CO)c(O)c(CO)c1 [Compound A-05]
Glass Transition Temperature [1]: 135 °C
Solubility in (D)-1 [2]: ⊚ (The material for forming a pattern was dissolved at a concentration of 5 wt % at 23° C.)
Solubility in (D)-2 [2]: ◯ (The material for forming a pattern was dissolved at a concentration of 1 wt % at 23° C.)
Solubility in (D)-3 [3]: ⊚ (The material for forming a pattern was dissolved at a concentration of 5 wt % at 23° C.)
